The record followed here is patent US8003357B2, “Acidophilic enzymes” (Helmholtz-Zentrum Fuer Infektionsforschung GmbH, priority 2005, dated 2011).

For one assay, the target named is EstFA (Ferroplasma acidiphilum, UniProt Q2PCE5). Description: Enantioselectivity of EstFA towards chiral esters and lactones. The following applies: for % c / % e.e.: 100 mM citrate buffer pH 2.0, 5 μg EstFA, 10 hours; for E: enantioselectivity. In kind it is biochemical. Here is the method:
For an estimation of enantioselectivity of EstFA towards chiral esters and lactones, a number of primary and secondary alcohols as well as carboxylic acids and lactones were hydrolysed.
The above substrate specificities were tested in 96-well plates, using 100 mM citrate buffer (pH 2.0) in the presence of 5 μg pure EstFA. For the substrate, the concentrations between 10 nM and 10 mM were chosen. Progress of the reaction was followed by spectrophotometry using p-nitrophenol propionate as an indicator. The reaction was stopped after 10 hours by adjusting the pH to 8.0 by adding sodium hydroxide from a 100 mM stock solution and phenol red (0.8 mM) as a pH indicator. […] Ester hydrolysis of enantiomerically pure esters was measured colorimetrically in 5.0 mM EPPS buffer (N-(2-hydroxyethyl) piperazine-N′-(3′-propanesulfonic acid) at pH 8.0 and phenol red after termination of the reaction.

The subject of a further assay is EstFA (acidic esterase). In words: Effect of cations and inhibitors on recombinant EstFA activity. In kind it is biochemical, Ferroplasma acidiphilum. The arrangement: substitution of Fe^2+ in EstFA: dose or concentration left out as unconfirmed. The procedure:
The enzymes used for the tests were heterologously expressed in E. coli using genomic coding sequences obtained from Ferroplasma acidiphilum.
(§1) The acidic enzymes according to the invention were expressed in E. coli using the genomiccoding sequence for the respective enzyme from Ferroplasma acidiphilum, which are described in detail below. For enzymatic conversions, reaction conditions were in 100 mM sodium acetate buffer, 100 mM citrate buffer, 100 mM HEPES buffer for 2 minutes at 30° C., using p-nitrophenol propionate as the substrate for esterase, starch in the case of glycosidases, and HindIII digested λ DNA for ligase.

Another assay has as its system LigFA (acidic ligase). Description: Effect of cations and inhibitors on recombinant LigFA activity. In kind it is biochemical, Ferroplasma acidiphilum. The procedure:
as §1, with “The enzymes used for the tests were heterologously expressed in E. coli using genomic coding sequences obtained from Ferroplasma acidiphilum. The” for “The”

Assay [1] has as its system αGluFA (acidic glucosidase). Description: Effect of cations and inhibitors on recombinant αGluFA activity. It is filed as biochemical, Ferroplasma acidiphilum. Here is the method:
as §1, with “The enzymes used for the tests were heterologously expressed in E. coli using genomic coding sequences obtained from Ferroplasma acidiphilum. The” for “The”

The next assay has as its target αGluFA (Ferroplasma acidiphilum, UniProt Q5K3Q3). In words: Hydrolysis of glycosidic substrates by αGluFA. As to conditions: pH 3.0, 50° C., 100 μM FeCl2. In kind it is biochemical. The procedure: A variety of glycosidic substrates were examined for hydrolysis by αGluFA and kinetic constants were determined. For the assay, heterologously expressed αGluFA was incubated in 100 mM sodium citrate buffer, pH 3.0, containing 1% substrate, 100 μM FeCl2 and 5 μg αGluFA. […] Analysis was done by HPLC. Sample blanks were used for correction of spontaneous release of reducing sugar.
As substrates, sucrose, starch, amylose, amylopectin, pullulan and dextrin were used, the release of reducing sugars could also be determined by the dinitrosalicylic acid method, i.e. adding dinitrosalicylic acid solution to the reaction mixture, heating to 85° C. for 30 minutes, dilution with water and measuring absorbance at 450 nm. Activity towards p-nitrophenol α/β diglucopyranoside could be measured spectrophotometrically by following the absorbance at 346 nm using a molar extinction coefficient of 4800.

αGluFA, sequence (Q5K3Q3 entry or part of it): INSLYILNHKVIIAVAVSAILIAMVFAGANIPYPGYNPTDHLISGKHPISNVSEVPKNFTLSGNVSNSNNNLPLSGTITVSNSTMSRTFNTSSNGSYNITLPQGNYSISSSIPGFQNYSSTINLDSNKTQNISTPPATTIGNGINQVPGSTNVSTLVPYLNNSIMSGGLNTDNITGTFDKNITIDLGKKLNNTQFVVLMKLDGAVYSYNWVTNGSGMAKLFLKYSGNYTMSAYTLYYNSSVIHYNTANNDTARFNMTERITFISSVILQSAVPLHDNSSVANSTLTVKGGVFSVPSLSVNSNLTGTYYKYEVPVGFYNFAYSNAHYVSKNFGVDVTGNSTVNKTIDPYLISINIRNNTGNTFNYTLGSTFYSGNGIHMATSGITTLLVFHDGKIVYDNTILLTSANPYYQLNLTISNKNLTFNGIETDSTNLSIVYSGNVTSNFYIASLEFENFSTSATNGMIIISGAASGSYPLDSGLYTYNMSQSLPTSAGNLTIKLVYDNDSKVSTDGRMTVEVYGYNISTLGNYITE
EstFA, sequence (Q2PCE5 entry or part of it): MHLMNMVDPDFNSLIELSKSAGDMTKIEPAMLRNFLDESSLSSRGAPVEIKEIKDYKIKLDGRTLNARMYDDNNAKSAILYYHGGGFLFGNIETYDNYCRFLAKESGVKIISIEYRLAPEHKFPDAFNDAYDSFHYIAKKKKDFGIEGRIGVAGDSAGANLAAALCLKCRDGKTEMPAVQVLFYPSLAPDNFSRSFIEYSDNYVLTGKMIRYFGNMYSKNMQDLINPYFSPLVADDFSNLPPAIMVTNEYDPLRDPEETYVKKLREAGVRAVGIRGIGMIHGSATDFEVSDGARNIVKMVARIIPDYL
αGluFA (acidic glucosidase), sequence (as listed by the source): as the sequence (Q5K3Q3 entry or part of it) above
LigFA (acidic ligase), sequence (as listed by the source): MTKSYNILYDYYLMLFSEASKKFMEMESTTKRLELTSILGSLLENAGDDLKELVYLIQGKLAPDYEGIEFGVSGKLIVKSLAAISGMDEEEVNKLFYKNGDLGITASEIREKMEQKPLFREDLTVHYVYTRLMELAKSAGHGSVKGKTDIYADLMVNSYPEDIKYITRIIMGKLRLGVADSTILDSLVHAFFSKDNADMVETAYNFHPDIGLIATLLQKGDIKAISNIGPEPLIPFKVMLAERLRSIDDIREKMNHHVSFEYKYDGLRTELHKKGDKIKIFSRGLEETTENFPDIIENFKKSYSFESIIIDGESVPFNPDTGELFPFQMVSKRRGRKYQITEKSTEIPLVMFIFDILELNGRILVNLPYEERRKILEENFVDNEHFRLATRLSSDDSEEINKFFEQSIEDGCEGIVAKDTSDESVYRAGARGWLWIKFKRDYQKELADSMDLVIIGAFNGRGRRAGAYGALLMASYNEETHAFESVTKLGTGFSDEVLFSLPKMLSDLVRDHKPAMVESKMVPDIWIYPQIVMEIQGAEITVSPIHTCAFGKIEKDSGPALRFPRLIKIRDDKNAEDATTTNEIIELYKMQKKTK

`CC(=O)OC1CC(C)CCC1C(C)C` (stereo not drawn) [menthyl acetate]: at EstFA, the “% c” value worked out at 42.2%, the “% e.e.” value came out at 78.4% and the E stood at 14.7.
For the molecule `OCCS` [mercaptoethanol], the “Activity (%) EstFA” value in the assay with EstFA (acidic esterase) (additive 1 mM) stood at 55%.
In the case of `COC(=O)C(C)O` (stereo not drawn) [methyl lactate], on EstFA, the “% c” value is given as 3.4%, the “% e.e.” value is listed as 2.38% and the E came out at 1.1.
In the case of `COC(=O)C(C)CO` (stereo not drawn) [methyl-3-hydroxy-2-methylpropionate], on EstFA, the “% c” value is on record as 30.8%, the “% e.e.” value was determined as 98% and the E was 116.2.
As to `COC(=O)CC(C)O` (stereo not drawn) [methyl-3-hydroxybutyrate], at EstFA, the “% c” value is 26.2%, the “% e.e.” value is given as 98% and the E came to 42.8.
Consider `[Cl][Ni][Cl]` [nickel], for which the “substitution of Fe^2+ in EstFA” value with EstFA (acidic esterase) (as chloride salts) is “could not substitute Fe^2+”.
For `CC1(C)COC(=O)C1O` (stereo not drawn) [pantolactone], at EstFA, the “% c” value is on record as 10.06%, the “% e.e.” value amounted to 39.36% and the E came out at 2.40.
For `CCCC(=O)OCC1COC(C)(C)O1` (stereo not drawn) [solketal butyrate], in that order: 29.0%, 74.46% and 9.2.
For `COC(=O)[C@@H](N)Cc1c[nH]c2ccccc12` [tryptophane methylester], in that order: 4.33%, 2.12% and 1.1.
Turning to Triton X-100, the entries for the “Activity (%) EstFA” value in the assay on EstFA (acidic esterase) (additive 1%) and with EstFA (acidic esterase) (additive 3%) were 74.6% and 43.5%, respectively. Moreover, the “Activity (%) LigFA” value was 62.3% in the assay with LigFA (acidic ligase) (additive 1%) and 9.0% in the assay with LigFA (acidic ligase) (additive 3%). Also, the “Activity (%) αGluFα” value in assay [1] (additive 1%) turned out to be 95.7%; in assay [1] (additive 3%), 47.4%.
Regarding amylopectin, at αGluFA, the Kcat was determined as 89 ± 10.5 s⁻¹ and the Km was 1.05 ± 0.19 mg/mL.
Turning to amylose, on αGluFA, the Kcat was 126.0 ± 7.5 s⁻¹ and the Km is 7.49 ± 0.88 mg/mL.
Turning to dextrin, at αGluFA, the Kcat is 93.0 ± 11^ s^−1 and the Km stood at 0.221 ± 0.03 mg/mL.
For pullulan, in that order: 2.8 ± 0.1 s⁻¹ and 11.0 ± 0.1 mg/mL.
As for soluble starch, on αGluFA, the Kcat is listed as 94.0 ± 11^ s^−1 and the Km was 0.11 ± 0.02 mg/mL.
